e = 2'-O-(2-methoxyethyl) (MOE); d = 2'-deoxy (DNA)
Experiments:
CETP protein = assay: Plasma CETP protein by ELISA in huCETP transgenic mice (Example 5); type: in vivo, human; details: normal chow, 50 mg/kg i.p. twice per week for 6 weeks, compared to PBS control
Protocol: The mice were divided into five treatment groups. The first four groups received intraperitoneal injections of ISIS 349511, ISIS 349512, ISIS 349515, or ISIS 349517 at a dose of 50 mg/kg twice per week for 6 weeks. The fifth group received intraperitoneal injections of saline twice weekly for 6 weeks.
Plasma levels of CETP protein were measured by ELISA (Alpco, N.H.). […] The results are expressed as percentage inhibition compared to the PBS control.

[1] = Plasma cholesterol and triglyceride levels (Example 6); type: in vivo, mice; details: 50 mg/kg s.c. twice per week
Excerpt: The normal chow-fed mice were divided into three treatment groups. The cholesterol-enriched chow-fed mice were divided into three treatment groups. […] One chow-fed group and one cholesterol-enriched chow-fed group received subcutaneous injections of saline twice weekly for 6 weeks. The saline-injected groups served as the control groups to which the corresponding oligonucleotide-treated groups were compared.
Plasma cholesterol were extracted at weeks 3 and 6 by the method of Bligh and Dyer (Bligh, E. G. and Dyer, W. J. Can. J. Biochem. Physiol. 37: 911-917, 1959) and measured on weeks 0, 3 and 6 with an Olympus clinical analyzer (Hitachi Olympus AU400e, Melville, N.Y.). HDL, LDL and VLDL cholesterol were individually measured by HPLC. Triglyceride levels were measured on weeks 0, 3 and 6 with the use of a commercially available triglyceride kit (DCL Triglyceride Reagent; Diagnostic Chemicals Ltd.). VLDL levels were measured on week 6. The results are presented in Tables 22-26 and are expressed in mg/dL.

[2] = Effect on HDL composition in huCETP transgenic LDL receptor knockout mice (Example 10); type: in vivo; details: HDL fraction; for FC % (free cholesterol component of HDL) / PL % (phospholipid component of HDL) / Pro % (protein component of HDL) / TG % (triglyceride component of HDL) / CE % (cholesteryl ester component of HDL): CETP transgenic LDLr−/− mouse model; for CE % (cholesteryl ester component of HDL): calculated as (total cholesterol−free cholesterol)×1.67; for S/C Ratio: surface components (Pro, FC, PL) to core components (CE, TG)
Excerpt: In human CETP transgenic mice, the bulk of the cholesterol in plasma is associated with HDL and, in this model, cholesteryl ester (CE) transferred from HDL to VLDL/LDL by CETP is rapidly cleared by the LDL receptor (LDLr) (Zhou, H. et al., Biochim Biophys. Acta. 1761: 14821488, 2006). The human CETP transgenic, LDLr knockout mouse model used in this example is an animal model for cardiovascular disease. In this model, clearance of LDL is delayed due to the absence of LDLr leading to the inability of the mice to clear CE via the LDL pathway (Plump, A. S. et al., Arterioscler. Thromb. Vasc. Biol. 19: 1105-1110, 1999). This human CETP transgenic, LDLr knockout mouse is helpful in assessing the effect of antisense inhibition of CETP on HDL composition as the model has a proatherogenic lipoprotein profile where most of the cholesterol is found in VLDL and LDL.
Male transgenic mice were maintained on a 12-hour light/dark cycle and were fed ad libitum the Western diet (TD88137; 42% cal from fat, 0.2% cholesterol; Harlan Laboratories, Indianapolis, Ind.). Animals were acclimated for at least 7 days in the research facility before initiation of the experiment and were maintained on this diet throughout the study period. Antisense oligonucleotides (ASOs) were prepared in buffered saline (PBS) and sterilized by filtering through a 0.2 micron filter. Oligonucleotides were dissolved in 0.9% PBS for injection.
Another group received subcutaneous injections of control oligonucleotide ISIS 141923 at a dose of 15 mg/kg/week for 6 weeks. One group of mice received subcutaneous injections of PBS for 6 weeks. The PBS-injected group served as the control group to which treatment groups were compared.
At the end of the treatment period, plasma samples were taken for further analysis.
The VLDL+IDL, LDL and HDL lipoprotein sub-fractions were separated by ultracentrifugation, based on their relative densities. Pooled plasma samples from all the groups of […] each was added to a 2 mL Beckman Quick-Seal centrifuge tube and the density adjusted to 1.019 g/mL with potassium bromide (KBr). The samples were then spun in a Beckman TL-100 ultracentrifuge for 4 hours at 100,000 rpm at 4 degrees Celsius. The top of the tube containing the VLDL+IDL sub-fraction was sliced off and collected.
The bottom fraction was collected in a new tube; the density was re-adjusted to 1.063 g/ml with KBr and re-spun at 100,000 rpm at 4 degrees Celsius for 5 hours to concentrate the LDL sub-fraction. The top of the tube containing the LDL sub-fraction was collected. Once again, the bottom fraction was placed in a new tube and the density was now adjusted to 1.21 g/ml with KBr to concentrate the HDL sub-fraction. The tubes were spun at 100,000 rpm at 4 degrees Celsius for 6 hours. The HDL sub-fraction was finally collected. All of the lipoprotein sub-fractions were dialyzed overnight in PBS to remove excess KBr.
The sub-fractions were then assayed for total cholesterol and triglyceride (TG) using enzymatic assays from Roche (Basel, Switzerland). Phospholipid (PL) and free cholesterol (FC) were measured using enzymatic assays from Wako Chemicals USA (Richmond, Va.). Protein (Pro) concentration was measured by Fisher Scientific's BCA assay (Pittsburgh, Pa.). Cholesteryl ester (CE) was calculated as (total cholesterol−free cholesterol)×1.67 (CE is cholesterol plus a fatty acid, the 1.67 adjustment takes into account the increase in mass the fatty acid will add (Rudel L L et al, JCI 100 (1); 74-83)). The S/C ratio is the ratio of the surface components (Pro, FC, and PL) to the core components (CE and TG).
Additionally, the S/C ratio is increased, indicating a shift to a smaller HDL particle, after antisense oligonucleotide inhibition of CETP. Accordingly, in this model, inhibiting the CETP-mediated transfer of TG to HDL, and CE from HDL, leads to the formation of smaller, denser, and CE rich HDL.

Row | Substance | Percent inhibition of plasma CETP protein levels (CETP protein) | HDL cholesterol levels ([1]; Cholesterol chow, Week 0) | LDL cholesterol levels ([1]; Cholesterol chow, Week 0) | Total cholesterol levels ([1]; Cholesterol chow, Week 0) | Triglyceride levels ([1]; Cholesterol chow, Week 0) | HDL cholesterol levels ([1]; Cholesterol chow, Week 3) | LDL cholesterol levels ([1]; Cholesterol chow, Week 3) | Total cholesterol levels ([1]; Cholesterol chow, Week 3) | Triglyceride levels ([1]; Cholesterol chow, Week 3) | HDL cholesterol levels ([1]; Cholesterol chow, Week 6) | LDL cholesterol levels ([1]; Cholesterol chow, Week 6) | Total cholesterol levels ([1]; Cholesterol chow, Week 6) | Triglyceride levels ([1]; Cholesterol chow, Week 6) | VLDL cholesterol levels ([1]; Cholesterol chow, Week 6) | HDL cholesterol levels ([1]; Normal chow, Week 0) | LDL cholesterol levels ([1]; Normal chow, Week 0) | Total cholesterol levels ([1]; Normal chow, Week 0) | Triglyceride levels ([1]; Normal chow, Week 0) | HDL cholesterol levels ([1]; Normal chow, Week 3) | LDL cholesterol levels ([1]; Normal chow, Week 3) | also measured
1 | ISIS 349511: 5-10-5 MOE gapmer CCCGACCTCCTTGGAGACTT (sugars from the 5' end e5 d10 e5, backbone and methylation of C not given here) | 75% | 51 mg/dL | 179 mg/dL | 252 mg/dL | 101 mg/dL | 85 mg/dL | 576 mg/dL | 714 mg/dL | 94 mg/dL | 136 mg/dL | 558 mg/dL | 809 mg/dL | 99 mg/dL | 115 mg/dL | 51 mg/dL | 176 mg/dL | 254 mg/dL | 80 mg/dL | 56 mg/dL | 148 mg/dL | Total cholesterol levels ([1]; Normal chow, Week 3): 227 mg/dL; Triglyceride levels ([1]; Normal chow, Week 3): 90 mg/dL; HDL cholesterol levels ([1]; Normal chow, Week 6): 98 mg/dL; LDL cholesterol levels ([1]; Normal chow, Week 6): 178 mg/dL; Total cholesterol levels ([1]; Normal chow, Week 6): 327 mg/dL; Triglyceride levels ([1]; Normal chow, Week 6): 101 mg/dL; VLDL cholesterol levels ([1]; Normal chow, Week 6): 50 mg/dL
2 | ISIS 141923: CCTTCCCTGAAGGTTCCTCC, 5-10-5 MOE gapmer, a control oligonucleotide which has no known murine target (sugars from the 5' end e5 d10 e5, backbone and methylation of C not given here) [reference compound] | – | – | – | – | – | – | – | – | – | – | – | – | – | – | – | – | – | – | – | – | FC % (free cholesterol component of HDL) [2]: 3.1%; PL % (phospholipid component of HDL) [2]: 8.4%; Pro % (protein component of HDL) [2]: 24.8%; TG % (triglyceride component of HDL) [2]: 47.1%; CE % (cholesteryl ester component of HDL) [2]: 16.6%; S/C Ratio [2]: 0.57
3 | ISIS 349517: 5-10-5 MOE gapmer CAGCACTTTAATGCCAGTGG (sugars from the 5' end e5 d10 e5, backbone and methylation of C not given here) | 86% | 49 mg/dL | 134 mg/dL | 201 mg/dL | 84 mg/dL | 78 mg/dL | 597 mg/dL | 739 mg/dL | 107 mg/dL | 122 mg/dL | 486 mg/dL | 695 mg/dL | 102 mg/dL | 88 mg/dL | 53 mg/dL | 162 mg/dL | 237 mg/dL | 66 mg/dL | 64 mg/dL | 146 mg/dL | Total cholesterol levels ([1]; Normal chow, Week 3): 238 mg/dL; Triglyceride levels ([1]; Normal chow, Week 3): 97 mg/dL; HDL cholesterol levels ([1]; Normal chow, Week 6): 100 mg/dL; LDL cholesterol levels ([1]; Normal chow, Week 6): 220 mg/dL; Total cholesterol levels ([1]; Normal chow, Week 6): 375 mg/dL; Triglyceride levels ([1]; Normal chow, Week 6): 91 mg/dL; VLDL cholesterol levels ([1]; Normal chow, Week 6): 55 mg/dL; FC % (free cholesterol component of HDL) [2]: 2.1%; PL % (phospholipid component of HDL) [2]: 15.6%; Pro % (protein component of HDL) [2]: 31.3%; TG % (triglyceride component of HDL) [2]: 12.8%; CE % (cholesteryl ester component of HDL) [2]: 38.1%; S/C Ratio [2]: 0.96
